Assay [1] deals with fluid secretion caused by the enterotoxin(s) present in the culture filtrate (enteropathogenic strain of E. coli). Briefly: animal or person. The format is in vivo, Mice.
A further assay concerns E. coli P155. In kind it is in vivo, Piglets. The conditions noted are these: n = 14.
The subject of assay [2] is diarrhoea caused by culture filtrate prepared from an enteropathogenic strain of E. coli. Briefly: Piglet test: inhibition of scour after oral challenge with E. coli culture filtrate. The format is in vivo, Piglets. The conditions noted are these: scour score over 7 h, hydrochloride salt. On the procedure:
2-4 Day old piglets are dosed with the compound orally 45 min prior to oral challenge with 25 ml of culture filtrate prepared from an enteropathogenic strain of E. coli. Control animals receive drug vehicle 45 min prior to challenge with a similar volume of material. Animals are observed for diarrhoea over a 7 hour period and the severity of scour scored on a 0-3 basis for each animal at hourly intervals. The percentage inhibition in treated animals is determined as: [formula]

For assay [3], the system named is fluid secretion caused by material prepared by cell lysis of an enteropathogenic strain of E. coli. Briefly: Infant rabbit test: inhibition of fluid secretion after oral challenge with E. coli cell lysis material. The note with it: for % Fluid Inhibition: Rabbit, hydrochloride salt. The format is in vivo, Rabbits. On the procedure:
Infant rabbits 7-10 days old are dosed with the compound under investigation orally 45 min prior to oral challenge with 50 ml/kg bodyweight of material prepared by cell lysis of an enteropathogenic strain of E. coli. Control animals receive drug vehicle 45 mins prior to challenge with a similar volume of material. 5-7 Hours after oral administration of the challenge the animals are killed and gut weight/remaining bodyweight ratios calculated and the percentage fluid inhibition determined as above.

The subject of assay [4] is intestinal secretion induced by cholera toxin. The note with it: alleged in G. N. Mir et al. (1978); cited from earlier work.
Setting [5] is: Mus musculus, po, 2 h; read-out: % Fluid Inhibition.
[6] abbreviates: 10 mg/kg oral, 45 min before challenge.

Structures can show the parent of a compound that is named as a salt. Where two headings read alike, the source gives them in different places.

Take `Cc1ccc2ccccc2c1CC1=NCCN1` [2-Methyl Naphazoline]: in assay [1] (Mus musculus, po, 2 h), the inhibition in vivo at 20 mg/kg amounted to 82%.
Turning to `CC1(C)S[C@@H]2[C@H](NC(=O)[C@H](N)c3ccc(O)cc3)C(=O)N2[C@H]1C(=O)O` [Amoxycillin], in the assay on E. coli P155, the “Mean scour score ± S.E.M. (during 6 hrs after treatment)” value worked out at 2.0 ± 0.2.
As for `N=C(N)NC(=O)Cc1c(Cl)cccc1Cl` [BS 100-141, 2,6-dichlorophenylacetylguanidine hydrochloride], in assay [1] (setting [5]), the inhibition in vivo at 1 mg/kg turned out to be 45%. For the same molecule, the “% Fluid Inhibition” value in assay [2] (1 mg/kg oral) turned out to be 76%.
For the molecule `Clc1cccc(Cl)c1NC1=NCCN1` [Clonidine], the inhibition in vivo at 1 mg/kg in assay [1] (Mus musculus, po, 2 h, read-out: % Fluid Inhibition) stood at 42%. Moreover, the “% Fluid Inhibition” value in assay [3] (5 mg/kg oral) amounted to 26%; in assay [2] (0.2 mg/kg oral) it was 64%.
With `CNC(=N)NC(=O)Nc1c(C)cccc1C` [Lidamidine], the inhibition in vivo at 50 mg/kg in assay [1] (Mus musculus, po, 2 h) was 33%. Further, in assay [1] (mouse, in vivo), the “activity relative to the Compounds in the mouse test” value is given as “at least five times less active than the Compounds”. The “% Fluid Inhibition” value in assay [3] (50 mg/kg oral) was -7%. Also, the “activity in the rabbit test” value in assay [3] (in words) is “inactive”. Moreover, the “inhibition of intestinal secretion induced by cholera toxin” value in assay [4] is “inhibited intestinal secretion induced by cholera toxin”.
The molecule `c1ccc2c(CC3=NCCN3)cccc2c1` [Naphazoline] registered an inhibition in vivo at 10 mg/kg in assay [1] (Mus musculus, po, 2 h) of 59%. Also, the “% Fluid Inhibition” value in assay [3] (setting [6]) came out at 32%; in assay [2] (setting [6]) it was 88%.
`Cc1cc(C(C)(C)C)c(O)c(C)c1CC1=NCCN1` [Oxymetazoline]: in assay [1] (Mus musculus, po, 2 h), the inhibition in vivo at 0.1 mg/kg stood at 78%.
Consider `CCc1cccc(CC)c1NC1=NCCN1` [ST91], for which, in assay [1] (Mus musculus, po, 2 h), the inhibition in vivo at 5 mg/kg came to 56%. Moreover, in assay [1] (setting [5]), the inhibition in vivo at 1 mg/kg amounted to 22%.
`c1cc2c(c(NC3=NCCN3)c1)CCCC2` [Tramazoline] had an inhibition in vivo at 10 mg/kg in assay [1] (Mus musculus, po, 2 h) of 44%.
As to `Cc1cc(C(C)(C)C)cc(C)c1CC1=NCCN1` [Xylometazoline], the inhibition in vivo at 8.25 mg/kg in assay [1] (Mus musculus, po, 2 h) came out at 44%. For the same molecule, the “% Fluid Inhibition” value in assay [3] (20 mg/kg oral) is recorded as 119%; in assay [2] (2 mg/kg oral) it was 44%.
